According to patent US20040053896A1, “Pharmaceutically active compound” (priority 2000, published 2004):
Like-named read-outs stand apart in the source and are kept apart here.

Columns and labels:
[1] = test system: rat hepatocytes; assay: Cytotoxicity assay, chromium-51 leakage from monolayer cultures; type: cell-based; details: rat hepatocyte monolayers, 0.012M test material, mean +/- SD, n=5; control 37.61+/-1.56%
Method: Activities of supernatants and cells were measured. Chromium-51 leakage is expressed as a percentage of the total activity (medium+cells). Values are mean +/− SD [n=5]. *=P<0.001 CL(CBZ)/CL(CBZ)-Dox and a control (no material added after incubation with chromium-51).

[2] = test system: HepG2 cells; assay: In vitro toxicity test by in situ end labelling (ISEL), % of dead cells; type: cell-based; details: 4 h incubation
Method: Cholyl-lysyl-doxorubicin (VIII) synthesised as described above was subjected to cytotoxicity tests in comparison with free doxorubicin and free cholate using in situ end labelling which enables semi-quantitative measure of apoptosis and necrosis.
HepG2 cells (Cobra American Type Culture Collection) in 24 well plates were used. Doxorubicin, cholate or cholyllysyldoxorubicin (in various amounts up to 0.86 μM) was added in triplicate and incubated for 4 h. The cells were trypsinized off from the well plates, cytospun, and then frozen.
In order to measure cell viability, sections were warmed up to room temperature for 30 minutes, then fixed in acetone for 10 minutes, and then wax was introduced around cells.
An in situ end labelling (ISEL) positive mixture was made up which included buffer (1 ml), dATP (1 μl), dCTP (1 μl), dGTP (1 μl), DiglldUTP (1 μl) and Klenow DNA polymerase (4 μl), and an in situ end labelling negative mixture of buffer (1 ml), dATP (1 μl), dCTP (1 μl), dGTP (1 μl), Digll, 2dUTP and water. (4 μl) was also made up. To each cytospin and coverslip was added 60 μl of the ISEL positive mixture or negative mixture. These were then floated in a water bath at 37° C. for 1 h. The coverslips were then removed and washed 3×5 mins in distilled water, followed by washing in TBS pH 7.5 for 5 mins. Anti digoxigen Alkaline phosphatase diluted 1:200 TBS was added and incubated for 1 h at room temperature and then washed in TBS pH 7.5 for 2.5 mins, followed by further washing in TBS pH 8.2 for another 2.5 mins. A substrate mixture was then made up to include naphthol phosphate (10 mg), NN-dimethylformamide (1 ml), Tris pH 8.2 (49) IM Levamasole (50 μl) and Fast blue (50 mg).
The substrate mixture was added to each cytospin and allowed to develop for 15 mins followed by washing in distilled water and then mounted.

[3] = test system: 12 human tumour cell lines; assay: Antiproliferative activity in vitro, propidium iodide DNA content; type: cell-based; details: for mean IC70: mean over 12 human tumour cell lines, 4 days continuous exposure
Method: Cholyl-lysyl-doxorubicin (VIII) was investigated for antiproliferative activity in vitro in 12 human tumour cell lines (including the large cell lung carcinoma H460, the mammary carcinoma cell line MCF7, the uterus carcinoma cell line UXF 1138L and the large cell lung carcinoma LXFL 529L), and was compared to free doxorubicin and cholic acid as controls. 5-20.000 cells/well were plated into 96 wells. After 24 hours, the compounds were added in dose levels ranging from 3 nM to 30 μM (cholyl-lysyl-doxorubicin and cholic acid) and from 0.3 nM to 3 μM (doxorubicin), respectively.

[4] = for Cumulative biliary excretion, Mean % Dose: Wistar rats; for Biliary excretion, mean % of radioactivity in the dose administered: bolus via jugular vein, 14C-Dox 1 mg/300 μl or 14C-Cpd VIII 2 mg/300 μl, n=6
[5] = Solubility in solvents; type: physicochemical
[6] = Percentage of dose in liver, heart, urine and blood at 60 min
Method: Further tests were performed to estimate the percentage of the dose of the compounds being tested in the liver, heart, urine and blood of Wistar rats.

[7] = Wistar rats, 60 min after injection

Row | SMILES | Chromium-51 leakage as a percentage of the total activity (medium+cells) [1] | Mean % of dead cells ([2]; 0.03 μM) [%] | Mean % of dead cells ([2]; 0.06 μM) [%] | Mean % of dead cells ([2]; 0.12 μM) [%] | Mean % of dead cells ([2]; 0.86 μM) [%] | Mean % of dead cells ([2]; 0.45 μM) [%] | Cumulative biliary excretion, Mean % Dose ([4]; cumulative to 0 min) [% Dose] | Cumulative biliary excretion, Mean % Dose ([4]; cumulative to 10 min) [% Dose] | Cumulative biliary excretion, Mean % Dose ([4]; cumulative to 20 min) [% Dose] | Cumulative biliary excretion, Mean % Dose ([4]; cumulative to 30 min) [% Dose] | Cumulative biliary excretion, Mean % Dose ([4]; cumulative to 40 min) [% Dose] | Cumulative biliary excretion, Mean % Dose ([4]; cumulative to 50 min) [% Dose] | Cumulative biliary excretion, Mean % Dose ([4]; cumulative to 60 min) [% Dose] | Biliary excretion, mean % of radioactivity in the dose administered ([4]; bile aliquot at 10 min) [%] | Biliary excretion, mean % of radioactivity in the dose administered ([4]; bile aliquot at 20 min) [%] | Biliary excretion, mean % of radioactivity in the dose administered ([4]; bile aliquot at 30 min) [%] | Biliary excretion, mean % of radioactivity in the dose administered ([4]; bile aliquot at 40 min) [%] | Biliary excretion, mean % of radioactivity in the dose administered ([4]; bile aliquot at 50 min) [%] | Biliary excretion, mean % of radioactivity in the dose administered ([4]; bile aliquot at 60 min) [%] | Biliary excretion, mean % of radioactivity in the dose administered ([4]; time 0 min) [%] | other results
1 | CC(CCC(=O)NC(CCCCNC(=O)OCc1ccccc1)C(=O)O)C1CCC2C3C(O)CC4CC(O)CCC4(C)C3CC(O)C12C (centres unmarked) [CL(CBZ), Cholyllsine-N-ε-CBZ] | 49.01+/−2.57% | – | – | – | – | – | – | – | – | – | – | – | – | – | – | – | – | – | – | – | –
2 | COc1cccc2c1C(=O)c1c(O)c3c(c(O)c1C2=O)CC(O)(C(=O)CO)CC3OC1CC(NC(=O)C(CCCCNC(=O)OCc2ccccc2)NC(=O)CCC(C)C2CCC3C4C(O)CC5CC(O)CCC5(C)C4CC(O)C23C)C(O)C(C)O1 (centres unmarked) [CL(CBZ)-Dox, CholyllysylCBZDoxorubicin] | 36.45+/−3.77% | – | – | – | – | – | – | – | – | – | – | – | – | – | – | – | – | – | – | – | –
3 | C[C@H](CCC(=O)O)[C@H]1CC[C@H]2[C@@H]3[C@H](O)C[C@@H]4C[C@H](O)CC[C@]4(C)[C@H]3C[C@H](O)[C@]12C [Cholate, cholic acid] | – | 1 | 0 | 1.8 | 1 | – | – | – | – | – | – | – | – | – | – | – | – | – | – | – | antitumour activity in vitro ([3]; 12 human tumour cell lines, 3 nM to 30 μM, 4 days exposure): no antitumour activity
4 | COc1cccc2c1C(=O)c1c(O)c3c(c(O)c1C2=O)C[C@@](O)(C(=O)CO)C[C@@H]3O[C@H]1C[C@H](NC(=O)[C@H](CCCCN)NC(=O)CC[C@@H](C)[C@H]2CC[C@H]3[C@@H]4[C@H](O)C[C@@H]5C[C@H](O)CC[C@]5(C)[C@H]4C[C@H](O)[C@]23C)[C@H](O)[C@H](C)O1 [Compound (VIII), Cholyl-Lysyl-Doxorubicin] | – | 7.6 | 10.8 | 20.5 | 96.6 | 49 | 0 | 41.7 | 61.7 | 69.7 | 75.3 | 79.3 | 81.8 | 41.7 | 20 | 8 | 5.6 | 4 | 2.5 | 0 | Mean % of dead cells ([2]; 0.00 μM): 3.3%; Solubility in non-polar solvents ([5]; non-polar solvents such as ethoxyethane): insoluble; Solubility in water, methanol and ethanol ([5]; water, methanol and ethanol): soluble; mean IC70 [3]: 1300 nM; Percentage of dose at 60 min, Mean % dose, Blood ([6]; Wistar rats, blood, 60 min after injection): 8.9 % dose; Percentage of dose at 60 min, Mean % dose, Heart ([6]; Wistar rats, heart, 60 min after injection): 0 % dose; Percentage of dose at 60 min, Mean % dose, Liver ([6]; Wistar rats, liver, 60 min after injection): 14.7 % dose; Percentage of dose at 60 min, Mean % dose, Total ([6]; Wistar rats, sum of liver, heart, urine and blood, 60 min): 25.8 % dose; Percentage of dose at 60 min, Mean % dose, Urine [6, 7]: 2.2 % dose
5 | COc1cccc2c1C(=O)c1c(O)c3c(c(O)c1C2=O)C[C@@](O)(C(=O)CO)C[C@@H]3O[C@H]1C[C@H](N)[C@H](O)[C@H](C)O1 [Doxorubicin, doxorubicin] | – | 9.4 | 14.9 | 28.9 | 100 | 50 | 0 | 2.3 | 7 | 9.6 | 11.7 | 12.7 | 13.5 | 2.3 | 4.7 | 2.6 | 2.4 | 1 | 0.8 | 0 | mean IC70 [3]: 700 nM; Percentage of dose at 60 min, Mean % dose, Urine [6, 7]: 4 % dose; Percentage of dose at 60 min, Mean % dose, Blood ([6]; Wistar, rat, in vivo, 60 min): 74.7 % dose; Percentage of dose at 60 min, Mean % dose, Heart ([6]; Wistar, rat, in vivo, 60 min): 10.8 % dose; Percentage of dose at 60 min, Mean % dose, Liver ([6]; Wistar, rat, in vivo, 60 min): 1.9 % dose
